Measurements reported in patent US7037644B1, “Means and methods for monitoring non-nucleoside reverse transcriptase inhibitor antiretroviral therapy and guiding therapeutic decisions in the treatment of HIV/AIDS” (ViroLogic, Inc., priority 1998, dated 2006).

Tests used:
[1] = test system: HIV reverse transcriptase with mutations at codon 230 (leucine) and 181 (cysteine); assay: Phenotypic susceptibility assay; type: cell-based; settings: mutations at codons 230 and 181
Source text: In another specific embodiment, the invention provides for a method of evaluating the effectiveness of NNRTI antiretroviral therapy of a patient comprising (i) collecting a biological sample from an HIV-infected patient; and (ii) determining whether the biological sample comprises nucleic acid encoding HIV RT having a mutation at codon(s) 230 and/or 181. […] In another specific embodiment, the invention provides for a method of evaluating the effectiveness of NNRTI antiretroviral therapy of a patient comprising (i) collecting a biological sample from an HIV-infected patient; and (ii) determining whether the biological sample comprises nucleic acid encoding HIV RT having a mutation at codon 181. […] In another specific embodiment, the invention provides for a method of evaluating the effectiveness of NNRTI antiretroviral therapy of a patient comprising (i) collecting a biological sample from an HIV-infected patient; and (ii) determining whether the biological sample comprises nucleic acid encoding HIV RT having a mutation at codon 188. […]

[2] = test system: RTV-1058 clone 10 (RT L100I, K103N, Y188L); assay: Phenotypic susceptibility assay (patient RTV clone); type: cell-based, HIV-1
Source text: (§1) The resistance test vectors containing a functional luciferase gene cassette were constructed and host cells were transfected with the resistance test vector DNA. The resistant test vectors contained patient-derived reverse transcriptase and protease sequences that were either susceptible or resistant to the antiretroviral agents, such as nucleoside reverse transcriptase inhibitors, non-nucleoside reverse transcriptase inhibitors and protease inhibitors. The resistance test vector viral particles produced by transfecting the resistance test vector DNA into host cells, either in the presence or absence of protease inhibitors, were used to infect target host cells grown either in the absence of NRTI or NNRTI or in the presence of increasing concentrations of the drug. The amount of luciferase activity produced in infected target host cells in the presence of drug was compared to the amount of luciferase produced in infected target host cells in the absence of drug. Drug resistance was measured as the amount of drug required to inhibit by 50% the luciferase activity detected in the absence of drug (inhibitory concentration 50%, IC50). The IC50 values were determined by plotting percent drug inhibition vs. log10 drug concentration.
(§2) Host cells were seeded in 10-cm-diameter dishes and were transfected several days after plating with resistance test vector plasmid DNA and the envelope expression vector. Transfections were performed using a calcium-phosphate precipitation procedure. The cell culture media containing the DNA precipitate was replaced with fresh medium, from one to 24 hours, after transfection. Cell culture media containing resistance test vector viral particles was harvested one to four days after transfection and was passed through a […] filter before being stored at […]. HIV capsid protein (p24) levels in the harvested cell culture media were determined by an EIA method as described by the manufacturer (SIAC; Frederick, Md.). Before infection, target cells (293 and 293/T) were plated in cell culture media. Control infections were performed using cell culture media from mock transfections (no DNA) or transfections containing the resistance test vector plasmid DNA without the envelope expression plasmid. One to three or more days after infection the media was removed and cell lysis buffer (Promega) was added to each well. Cell lysates were assayed for luciferase activity (FIG. 3). The inhibitory effect of the drug was determined using the following equation: % luciferase inhibition=1−(RLUluc [drug]÷RLUluc)×100 where RLUluc [drug] is the relative light unit of luciferase activity in infected cells in the presence of drug and RLUluc is the Relative Light Unit of luciferase activity in infected cells in the absence of drug. IC50 values were obtained from the sigmoidal curves that were generated from the data by plotting the percent inhibition of luciferase activity vs. the log10 drug concentration. The drug inhibition curves are shown in (FIG. 3).
(§3) A resistance test vector was constructed as described in Example 1 from a patient sample designated 98-1058. This patient had been previously treated with ddI, d4T, AZT, 3TC, ddC and abacavir (NRTIs), indinavir and amprenavir (PRIs) and nevirapine (an NNRTI). Isolation of viral RNA and RT/PCR was used to generate a patient derived segment that comprised viral sequences coding for all of RP and aa 1-313 of RT. The PDS was inserted into an indicator gene viral vector to generate a resistance test vector designated RTV-1058. Individual clones of RTV-1058 were selected and were then tested in a phenotypic assay to determine accurately and quantitatively the level of susceptibility to a panel of anti-retroviral drugs. The panel of antiretroviral drugs comprised members of the classes known as NRTIs (AZT, 3TC, d4T, kkI an ddC), NNRTIs (delavirdine and nevirapine), an PRIs (indinavir, nelfinavir, ritonavir, and saquinavir). […]

[3] = test system: RTV-1058 clone 4 (RT K103N); assay: as above; type: cell-based, HIV-1
Source text: as §1, §2, §3

In the case of CC(C)Nc1cccnc1N1CCN(C(=O)c2cc3cc(NS(C)(=O)=O)ccc3[nH]2)CC1 [delavirdine], the “change in susceptibility” value [1] is reported as “significant decrease”, the “loss of susceptibility (fold, IC50)” value [2] is reported as “greater than 250 fold” and the “loss of susceptibility (fold, IC50)” value [3] is reported as 85 fold.
With Cc1ccnc2c1NC(=O)c1cccnc1N2C1CC1 [nevirapine] the “change in susceptibility” value [1] was “significant decrease”, the “loss of susceptibility (fold, IC50)” value [2] was “greater than 800 fold” and the “loss of susceptibility (fold, IC50)” value [3] was “greater than 800 fold”.
